Common to all, as to type: cell-based
In experiment [1] the test system is HK-2 cells. Briefly: CCK-8 cell cytotoxicity assay, HK-2. The note with it: Homo sapiens, HK-2, 72 h, read-out: IC50 (μM) HK-2. As to the method:
(§1) Cell cytotoxicity was determined by the CCK-8 assay. Four strains of human cells (SH-SY5Y) were seeded in 96-well plates at a density of 3 × 10^3 cells/well under 37 °C and 5% CO2 for 12 h and subsequently treated with the test sample solution (euphorbiasteroid and its metabolites, 10 μL) for 72 h. After treatment, each well with 10 μL CCK-8 reagent was incubated for 1–2 h in the incubator. Afterwards, the optical OD-value was measured at 450 nm through a microplate reader. Three multiple wells were set as parallel experimental groups.
(§2) Euphorbiasteroid and its metabolites were tested for their cytotoxicity on human cell lines SH-SY5Y, LO2, AC-16, and HK-2 by the CCK-8 assay. […] Therefore, considering the high content of euphorbiasteroid in Euphorbiae semen, it was speculated that the metabolites from hydroxylation and hydrolysis might be the potential toxic constituents of Euphorbiae semen.

In experiment [2] the test system is SH-SY5Y neuroblastoma cells. The experiment in a line: CCK-8 cell cytotoxicity assay, SH-SY5Y. As to conditions: Homo sapiens, 72 h, read-out: IC50 (μM) SH-SY5Y. The method, then:
as §1, §2
In general terms: Tetrazolium dyes change colour on reduction, which living cells bring about.

Experiment [3] deals with LO2 cells. Briefly: CCK-8 cell cytotoxicity assay, LO2. As to conditions: Homo sapiens, L02, 72 h, read-out: IC50 (μM) LO2. As to the method: as §1, §2
Experiment [4] deals with AC-16 cells. Briefly: CCK-8 cell cytotoxicity assay, AC-16. As to conditions: Homo sapiens, 72 h, read-out: IC50 (μM) AC-16. As to the method:
as §1, §2

For orientation: IC50 means the midpoint of a concentration-inhibition curve. Regarding `CC(=O)OC1C2C(OC(=O)Cc3ccccc3)C(C)CC2(OC(C)=O)C(=O)C(C)=CC2C(CCC13CO3)C2(C)C` (stereo not shown) [Compound M0, Euphorbiasteroid], the IC50 in experiment [1] is above 100 µM; in experiment [2] it was 55 ± 1.2 µM; in experiment [3] it was above 100 µM; in experiment [4], 97.7 ± 2.13 µM.

The values above are taken from paper PMC9504842, “Comprehensive Metabolic Profiling of Euphorbiasteroid in Rats by Integrating UPLC-Q/TOF-MS and NMR as Well as Microbial Biotransformation” (Metabolites, 2022).
